Experimental data as given in patent US20120245186A1, “COMBINATION CANCER THERAPY WITH HSP90 INHIBITORY COMPOUNDS” (SYNTA PHARMACEUTICALS CORP., priority 2009, published 2012).
Read-outs that look alike come from different tables or passages of the source.

Columns and labels:
[1] = tested on: HEL92.1.7 erythroleukemia cells; test: Single agent IC50, alamarBlue cell viability (Example 3), HEL92.1.7; assay type: cell-based, human; conditions: XLFit
Experimental: (§1) Cell viability was measured using the alamarBlue assay. In brief, cells were plated in 96-well plates in triplicate at 2000 cells per well (H1975) or 5000 cells per well (HEL92.1.7) and incubated at 37° C., 5% CO2 atmosphere for 24 hr prior to the addition of drug or vehicle (0.3% DMSO) to the culture medium. After 72 hr, 10 μl/well alamarBlue was added to the wells and incubated for an additional 3 hr at 37° C., 5% CO2 atmosphere. Fluorescence (560EX/590EM […]) was measured with a SpectraMax microplate reader (Molecular Devices) and the resulting data were used to calculate cell viability, normalized to vehicle control. […] After 72 hr exposure to drug, cell viability was measured.

H1975 cells = test: Single agent IC50 in H1975 cells, alamarBlue viability (Example 2); assay type: cell-based, human; conditions: XLFit
Experimental: After 72 h exposure to either drug, viability was determined by alamarBlue, data from which was used to calculate the IC50 values using XLFit software (ID Business Solutions).

[2] = tested on: NCI-H1975 non-small cell lung carcinoma cells; test: Single agent IC50, alamarBlue cell viability (Example 3), NCI-H1975; assay type: cell-based, human; conditions: XLFit
Experimental: as §1

[3] = tested on: human NSCLC cell line NCI-H1975; assay type: in vivo; conditions: 3 doses, day 32, SCID mice
Experimental: FBS was obtained from ATCC and all other reagents were obtained from Invitrogen Corp. (Carlsbad, Calif., USA). Cells that had been cryopreserved in liquid nitrogen were rapidly thawed at 37° C. and transferred to a tissue culture flask containing growth media and then incubated at 37° C. in a 5% CO2 incubator. […] To inactivate the trypsin, 5 mL of growth media was added and then the contents of the flask were centrifuged to pellet the cells. The supernatant was aspirated and the cell pellet was resuspended in 10 mL of growth media and the cell number determined using a hemocytometer. Cells were seeded into 175 cm^2 flasks containing 50 mL of growth media and incubated at 37° C. in a 5% CO2 incubator.
(§2) Animals were housed 4-5/cage in micro-isolators, with a 12 hr/12 hr light/dark cycle, acclimated for at least 1 week prior to use and fed normal laboratory chow ad libitum.

[4] = tested on: HCC827 human non-small cell lung cancer (NSCLC) cells; assay type: in vivo; conditions: day 40, SCID mice
Description: as §2

HT29 colon cancer cells = test: Single agent IC50, alamarBlue cell viability (Example 3), HT29; assay type: cell-based, human; conditions: XLFit
[5] = 72 hr exposure, read-out: Single agent IC50 values, HEL-92.1.7

CC(=O)O[C@H]1C(=O)[C@@]2(C)[C@H]([C@H](OC(=O)c3ccccc3)[C@]3(O)C[C@H](OC(=O)[C@H](O)[C@@H](NC(=O)c4ccccc4)c4ccccc4)C(C)=C1C3(C)C)[C@]1(OC(C)=O)CO[C@@H]1C[C@@H]2O [paclitaxel]
IC50 [1, 5]: 25 nM | IC50 (H1975 cells; 72 h exposure): 7 nM | IC50 ([2]; 72 hr exposure): 4 nM | % T/C value ([3]; paclitaxel 7.5 mg/kg i.v. 1 time per week): 38%

CC(=O)O[C@@]12CO[C@@H]1C[C@H](O)[C@@]1(C)C(=O)[C@H](O)C3=C(C)[C@@H](OC(=O)[C@H](O)[C@@H](NC(=O)OC(C)(C)C)c4ccccc4)C[C@@](O)([C@@H](OC(=O)c4ccccc4)[C@H]21)C3(C)C [docetaxel]
% T/C value ([4]; docetaxel 4 mg/kg 1×/week): 46% | IC50 [1, 5]: 14 nM | IC50 ([2]; 72 hr exposure): 1 nM | IC50 (HT29 colon cancer cells; 72 hr exposure): 0.6 nM

CC(C)c1cc(-c2nnc(O)n2-c2ccc3c(ccn3C)c2)c(O)cc1O [Compound 1, 3-(2,4-dihydroxy-5-isopropyl-phenyl)-4-(1-methyl-indol-5-yl)-5-hydroxy-[1,2,4] triazole]
% T/C value ([4]; Compound 1 75 mg/kg 1×/week): 26% | IC50 ([1]; Homo sapiens, HEL 92.1.7, 72 hr exposure): 32 nM | IC50 (H1975 cells; Homo sapiens, NCI-H1975, 72 h exposure): 15 nM | IC50 ([2]; Homo sapiens, NCI-H1975, 72 hr exposure): 13 nM | % T/C value ([3]; Compound 1 50 mg/kg i.v. 1 time per week): 55% | IC50 (HT29 colon cancer cells; Homo sapiens, HT-29, 72 hr exposure): 36 nM
